From patent publication US20220304992A1, “METHODS OF REJUVENATING AGED TISSUE BY INHIBITING 15-HYDROXYPROSTAGLANDIN DEHYDROGENASE (15-PGDH)” (The Board of Trustees of the Leland Stanford Junior …, priority 2019, published 2022) come the findings set out here.

One experiment relates to mdx4cv/mTRKO(G2) mice. Briefly: Plantar flexion tetanic force in Duchenne muscular dystrophy mouse model. Format: in vivo. The following applies: 8 month old mice, 4 weeks of treatment. As for the experimental part:
For ABT-263 treatments, 20 month old C57/B16 mice were treated with vehicle (ethanol:polyethylene glycol 400:Phosal 50 PG) or ABT-263 (in ethanol:polyethylene glycol 400:Phosal 50 PG) by oral gavage for 2 cycles of 1 week with a 2 week rest period between cycles as described previously (1). For the Duchenne muscular dystrophy (DMD) mouse model, we used 8-10 month old mdx4cv/mTRKO(G2) generated as previously described (2).
Time and distance to exhaustion was performed as previously described (4) for SW-treated mice and their controls (FIG. 3A).
The peak isometric torque (N·mm) of the ankle plantarflexors was assessed as previously described (8,9). Briefly, the foot of anesthetized mice was placed on a footplate attached to a servomotor (model 300C-LR; Aurora Scientific). Two Pt-Ir electrode needles (Aurora Scientific) […] subcutaneously over the tibial nerve, just posterior/posterior-medial to the knee. The ankle joint was secured at a 90° angle. The peak isometric torque was achieved by varying the current delivered to the tibial nerve at a frequency of 200 Hz and a 0.1-ms square wave pulse. We performed three tetanic measurements on each muscle, with 1 min recovery between each measurement. Data were collected with the Aurora Scientific Dynamic Muscle Data Acquisition and Analysis Software.

Experiment [1] has as its system atrogene and other transcript levels in aged muscles. Briefly: Quantitative RT-PCR of treated aged muscle tissue. Format: in vivo, mouse. The text has this:
We isolated RNA from MuSCs using the RNeasy Micro Kit (Qiagen). For muscle samples, we snap froze the tissue in liquid nitrogen, homogenized muscles in Trizol (Invitrogen) using the FastPrep FP120 homogenizer (MP Biomedicals), and then isolated RNA. We reverse-transcribed cDNA from total mRNA from each sample using the SensiFAST™ cDNA Synthesis Kit (Bioline). We subjected cDNA to RT-PCR using SYBR Green PCR Master Mix (Applied Biosystems) or TaqMan Assays (Applied Biosystems) in an ABI 7900HT Real-Time PCR System (Applied Biosystems). We cycled samples at 95° C. for 10 min and then 40 cycles at 95° C. for 15 s and 60° C. for 1 min. To quantify relative transcript levels, we used 2-ΔΔCt to compare treated and untreated samples and expressed the results relative to Gapdh.
For SYBR Green qRT-PCR, we used the following primer sequences: Gapdh, 30 forward 5′-[…]-3′, reverse 5′-[…]-3′; Hpgd, forward 5′-[…] -3′, reverse 5′-[…]-3′; Ptger1, forward 5′ […]-3′, reverse 5′-[…]-3′, Ptger2, forward 5′-[…]-3′, reverse 5′-[…]-3′, Cox2, forward, 5′-[…]-3′, reverse 5′-[…]-3′; Fbxo32, forward 5′-[…]-3′, reverse 5′-[…]-3′. For murine senescence markers and senescence associated markers we used the previously described primers (6).
TaqMan Assays (Applied Biosystems) were used to quantify Pax7, Myh, p21, Ptger3 and Ptger4 in samples according to the manufacturer instructions with the TaqMan Universal PCR Master Mix reagent kit (Applied Biosystems). Transcript levels were expressed relative to Gapdh levels. For SYBR Green qPCR, Gapdh qPCR was used to normalize input cDNA samples. For Taqman qPCR, multiplex qPCR enabled target signals (FAM) to be normalized individually by their internal Gapdh signals (VIC).
We isolated RNA from MuSCs, myoblasts and myotubes using the RNeasy Kit (Qiagen). Muscle samples were snap frozen in liquid nitrogen, then homogenized in Trizol (Invitrogen) using the FastPrep FP120 homogenizer (MP Biomedicals) before isolating RNA. We reverse-transcribed cDNA from total mRNA from each sample using the SensiFAST™ cDNA Synthesis Kit (Bioline). We subjected cDNA to RT-PCR using SYBR Green PCR Master Mix (Applied Biosystems) or TaqMan Assays (Applied Biosystems) in an ABI 7900HT Real-Time PCR System (Applied Biosystems). […] To quantify relative transcript levels, we used 2-ΔΔCt to compare treated and untreated samples and expressed the results relative to Gapdh. […]
For murine senescence markers and senescence associated markers we used the previously described primers (2). TaqMan Assays (Applied Biosystems) were used to quantify p21, Mstn, Ptger3 and Ptger4 in samples according to the manufacturer instructions with the TaqMan Universal PCR Master Mix reagent kit (Applied Biosystems). […] Mitochondrial copy number was quantified by using method and primers described previously (14).

The subject of experiment [2] is 15-PGDH overexpressing young muscles. The format is in vivo, mouse.
Procedure: (§1) Middle aged (18-20 mo.) and aged (>24 mo.) mice C57BL/6 were obtained the US National Institute on Aging (NIA) for aged muscle studies, and young (2-4 mo.) wild-type C57BL/6 mice from Jackson Laboratory. […] Time and distance to exhaustion was performed as previously described (4) for SW-treated mice and their controls.
(§2) Overexpression of Hpgd (15-PGDH) was achieved by integrating AAV9 under CMV promoter and with eGFP under IRES (AA9-CMV-m-HPGD-IRES-eGFP) (Vector Biolabs). The control virus was AAV9-tMCK-eGFP-WPRE.
(§3) The peak isometric torque (N·mm) of the ankle plantarflexors was assessed as previously described (21, 22). Briefly, the foot of anesthetized mice was placed on a footplate attached to a servomotor (model 300C-LR; Aurora Scientific). Two Pt-Ir electrode needles (Aurora Scientific) were inserted percutaneously and subcutaneously over the tibial nerve, just posterior/posterior-medial to the knee. The ankle joint was secured at a 90° angle. The peak isometric torque was achieved by varying the current delivered to the tibial nerve at a frequency of 200 Hz and a 0.1—ms square wave pulse. We performed three tetanic measurements on each muscle, with 1 min recovery between each measurement. Data were collected with the Aurora Scientific Dynamic Muscle Data Acquisition and Analysis Software.
Experiment [3] concerns aged mice with PTGDS knockdown. In words: SW treatment of aged mice with AAV9 shRNA knockdown of PTGDS. Format: in vivo, mouse. The following applies: aged muscles, SW one month.
Procedure: as §1, §2, §3
The mark [4] stands for this setting: 15-PGDH overexpressing young muscles, daily i.p.

Turning to `CCCC[S+]([O-])c1sc2nc(-c3cccs3)cc(-c3ccccc3)c2c1N` (centres unmarked) [SW033291, 2-(butylsulfinyl)-4-phenyl-6-(thiophen-2-yl)thieno[2,3-b]pyridin-3-amine], the “increase in muscle strength compared to vehicle treated controls” value in the experiment on mdx4cv/mTRKO(G2) mice is listed as 22%. Moreover, the “other aging, inflammatory and autophagy markers” value in experiment [1] (aged mice, SW treatment) is “no significant changes”. Moreover, in experiment [1] (aged muscles, SW treatment), the “Pgc1α mRNA level” value is reported as “restored to that seen in young muscles” and the “expression of Fbxo32 (Atrogin1) at the mRNA level” value was “decreased expression”. The “expression of atrogenes (Atrogin-1, MuRF1, Musa1, Smart) and Traf6 by RT-qPCR” value in experiment [1] (aged muscles, SW vs vehicle) is on record as “diminished”. In addition, in experiment [2] (setting [4]), the “mass of TA muscle” value is listed as “increased” and the “strength (plantar flexion tetanic force)” value is recorded as “increased”. Besides, the “muscle atrophy induced by overexpression of 15-PGDH” value in experiment [2] (young mice) is recorded as “rescued”. Further, in experiment [3], the endurance entry is “increase”, the muscle force result is reported as “increase” and the muscle mass result was “increase”.
